Reference: US20080269337A1, “Method for the enhancing biocidal activity” (priority 2007, published 2008)

Key:
[1] = tested on: aqueous industrial systems; conditions: U.S. Pat. Nos. 5,607,597 and 5,736,056; cited from earlier work
B. subtilus (ATCC23059) = assay: B. subtilus in synthetic medium, serial dilution and plating; type: cell-based
Procedure: By definition a potentiator compound will not, by itself, kill or inhibit the bacterial population. The non-toxicity of bistridecylsulfosuccinate to B. subtilus is illustrated in Table 4. One ml of bacteria from an overnight culture was used to innocculate shake flasks containing 50 mls of fresh synthetic medium. The synthetic medium (as described previously) was augmented with increasing amounts of bistridecylsulfosuccinate. Serial dilution and plating was carried out to compare the efficacy of each treatment. The culture of B. subtilus was grown in the presence of 0, 5, 10, and 20 mg/l bistridecylsulfosuccinate (Btdss). Plating was carried out at 2.5 hours and 5 hours of incubation. […] The control had no treatment.

B. cereus ATCC14579 = assay: B. cereus in synthetic medium, serial dilution and plating; type: cell-based; conditions: 20 mg/l bistridecylsulfosuccinate with 1 or 2 mg/l isothiazolinone
Excerpt: The spore forming bacterium B. cereus is of particular concern because of its pathogenic properties. Most incidents of food poisoning attributed to the genus Bacillus are caused by B. cereus. B. cereus is a common concern in production of dairy products. There is particular concern about this organism in powered milk based products for infants. This is a concern not only to producers of these goods but also to the manufacturers of packaging and containers for such products. […] A culture of B. cereus ATCC14579 was treated with isothiazolinone alone and isothiazolinone with bistridecylsulfosuccinate One ml of bacteria from an overnight culture was used to innocculate shake flasks containing 50 mls of fresh synthetic medium. The synthetic medium (as described previously) was dosed with isothiazolinone at one or two mg/l concentration; or isothiazolinone in conjunction with 20 mg/l bistridecylsulfosuccinate. Cultures were maintained shaking at 37° C. then carried through serial dilution and plated at 3 and 5 hour time points.

Question: For `CCCCC(CC)COC(=O)CC(C(=O)OCC(CC)CCCC)S(=O)(=O)O` (stereo not drawn) [dioctyl, dioctylsulfosuccinate], which “Effect on efficacy of isothiazolinone” value [1] is on record?
Answer: enhance the efficacy of isothiazolinone

Question: Which results are given for bistridecylsulfosuccinate [Btdss]?
Answer: B. subtilus count in synthetic medium (B. subtilus (ATCC23059); 5 mg/l Btdss alone, 2.4 Hour): 3.40 × 10^6; B. subtilus count in synthetic medium (B. subtilus (ATCC23059); 5 mg/l Btdss alone, 5 Hour): 4.00 × 10^6; B. subtilus count in synthetic medium (B. subtilus (ATCC23059); 10 mg/l Btdss alone, 2.4 Hour): 2.8 × 10^6; B. subtilus count in synthetic medium (B. subtilus (ATCC23059); 10 mg/l Btdss alone, 5 Hour): 3.90 × 10^7; B. subtilus count in synthetic medium (B. subtilus (ATCC23059); 20 mg/l Btdss alone, 2.4 Hour): 3.00 × 10^6; B. subtilus count in synthetic medium (B. subtilus (ATCC23059); 20 mg/l Btdss alone, 5 Hour): 3.6 × 10^7; Growth of treated cultures relative to the untreated control (B. subtilus (ATCC23059); 5, 10, and 20 mg/l bistridecylsulfosuccinate alone): increased growth relative to the untreated control; Toxicity to B. subtilus (B. subtilus (ATCC23059); alone, at concentrations at least as high as 20 mg/l): non-toxic; Effect on efficacy of isothiazolinone against B. cereus (B. cereus ATCC14579): greatly enhanced the efficacy of isothiazolinone; Effect on efficacy of isothiazolinone [1]: loss of efficacy

Question: With dinonylsulfosuccinates as the compound, how does the “Effect on efficacy of isothiazolinone” value [1] read?
Answer: enhance the efficacy of isothiazolinone
